Laboratory results: ChEMBL document CHEMBL5331108, “Design and Synthesis of 4-Fluorophenyl-5-methylene-2(5H)-furanone Derivatives as Potent Quorum Sensing Inhibitors” (J Med Chem, 2023)
Converted amounts (≈) assume the structure as drawn. The source made the active and inactive calls. No cut-off for these calls is given here.

Legend:
Escherichia coli = experiment: Antibacterial activity against penicillin-susceptible Escherichia coli ATCC25922 assessed as inhibition of bacterial growth incubated for 20 hrs by CLSI protocol based microdilution method; format: functional
[1] = Inhibition of quorum sensing system in Pseudomonas aeruginosa PAO1 assessed as inhibition of rhamnolipid production at 102.4 ug/ml incubated for 24 hrs by absorbance based assay; conditions: dose 102.4 µg/ml
Bacillus pumilus = experiment: Antibacterial activity against penicillin-susceptible Bacillus pumilus CMCC63202 assessed as inhibition of bacterial growth incubated for 20 hrs by CLSI protocol based microdilution method; format: functional
Bacillus subtilis = experiment: Antibacterial activity against penicillin-susceptible Bacillus subtilis ATCC9372 assessed as inhibition of bacterial growth incubated for 20 hrs by CLSI protocol based microdilution method; format: functional
Pseudomonas aeruginosa [2] = experiment: Synergistic antibacterial activity against Pseudomonas aeruginosa 27853 assessed as inhibition of bacterial growth at 1 to 256 ug/ml incubated for 24 hrs in the presence of Ciprofloxacin by absorbance based microplate reader analysis; format: functional, organism-based; conditions: dose 1-256 µg/ml
[3] = Inhibition of quorum sensing system in Pseudomonas aeruginosa PAO1 assessed as inhibition of pyocyanin production at 102.4 ug/ml incubated for 18 hrs by absorbance based assay; conditions: dose 102.4 µg/ml
Pseudomonas aeruginosa [4] = experiment: Antibacterial activity against Pseudomonas aeruginosa PAO1 assessed as inhibition of bacterial growth at 256 ug/ml measured after 25 hrs by absorbance based assay; format: functional, organism-based; conditions: dose 256.0 µg/ml
Pseudomonas aeruginosa [5] = experiment: Antibacterial activity against penicillin-susceptible Pseudomonas aeruginosa ATCC27853 assessed as inhibition of bacterial growth incubated for 20 hrs by CLSI protocol based microdilution method; format: functional
Pseudomonas aeruginosa [6] = experiment: Antibacterial activity against wild type Pseudomonas aeruginosa […] CGMCC1.12483 assessed as inhibition of bacterial growth incubated for 20 hrs by CLSI protocol based microdilution method; format: functional
Staphylococcus aureus [7] = experiment: Antibacterial activity against erthromycin-susceptible Staphylococcus aureus ATCC25923 assessed as inhibition of bacterial growth incubated for 20 hrs by CLSI protocol based microdilution method; format: functional
[8] = Hemolytic activity in mouse red blood cells assessed as hemolysis rate at 512 ug/ml incubated for 1 hrs by microplate reader analysis relative to control; format: toxicity, cell-based, Erythrocyte; conditions: red blood cells (erythrocytes), at 512 µg/mL, read-out: Activity
Staphylococcus aureus [9] = experiment: Antibacterial activity against methicillin-resistant Staphylococcus aureus ATCC43300 assessed as inhibition of bacterial growth incubated for 20 hrs by CLSI protocol based microdilution method; format: functional
Pseudomonas aeruginosa [10] = experiment: Synergistic antibacterial activity against Pseudomonas aeruginosa 27853 assessed as inhibition of bacterial growth incubated for 24 hrs in the presence of Clarithromycin by absorbance based microplate reader analysis; format: functional, organism-based; conditions: dose 1-256 µg/ml
Pseudomonas aeruginosa [11] = experiment: Synergistic antibacterial activity against Pseudomonas aeruginosa PAO1 assessed as inhibition of bacterial growth at 1 to 256 ug/ml incubated for 24 hrs in the presence of ciprofloxacin by absorbance based microplate reader analysis; format: functional, organism-based; conditions: dose 1-256 µg/ml
[12] = Inhibition of quorum sensing system in Pseudomonas aeruginosa PAO1 assessed as inhibition of protease activity at 102.4 ug/ml incubated for 24 hrs by absorbance based assay; conditions: dose 102.4 µg/ml
Pseudomonas aeruginosa [13] = experiment: Antibacterial activity against Pseudomonas aeruginosa 27853 assessed as inhibition of bacterial growth at 256 ug/ml measured after 25 hrs by absorbance based assay; format: functional, organism-based; conditions: dose 256.0 µg/ml
Pseudomonas aeruginosa [14] = experiment: Synergistic antibacterial activity against Pseudomonas aeruginosa PAO1 assessed as inhibition of bacterial growth at 1 to 256 ug/ml incubated for 24 hrs in the presence of Clarithromycin by absorbance based microplate reader analysis; format: functional, organism-based; conditions: dose 1-256 µg/ml
Pseudomonas aeruginosa [15] = experiment: Inhibition of biofilm formation in Pseudomonas aeruginosa PAO1 at 32 ug/ml incubated for 20 hrs by crystal violet staining based analysis; format: functional; conditions: dose 32.0 µg/ml
Pseudomonas aeruginosa [16] = experiment: Synergistic antibacterial activity against Pseudomonas aeruginosa 27853 assessed as inhibition of bacterial growth by measuring fold change in ciprofloxacin at 1 to 256 ug/ml incubated for 24 hrs by absorbance based microplate reader analysis; format: functional; conditions: dose 1-256 µg/ml
Pseudomonas aeruginosa [17] = experiment: Antibacterial activity against Pseudomonas aeruginosa 27853 assessed as inhibition of bacterial growth at […] incubated for 24 hrs by absorbance based microplate reader analysis relative to control; format: functional; conditions: dose 3.2 µg/ml
Klebsiella pneumoniae = experiment: Antibiofilm activity against Klebsiella pneumoniae ATCC13882 assessed as inhibition of biofilm formation incubated for 24 hrs by crystal violet staining based broth microdilution method; format: functional, organism-based; conditions: ATCC13882, 24 h
Enterococcus faecalis = experiment: Antibiofilm activity against Enterococcus faecalis ATCC19433 assessed as inhibition of biofilm formation incubated for 24 hrs by crystal violet staining based broth microdilution method; format: functional, organism-based; conditions: ATCC19433, 24 h
Staphylococcus aureus [18] = experiment: Antibiofilm activity against Staphylococcus aureus ATCC33591 assessed as inhibition of biofilm formation incubated for 24 hrs by crystal violet staining based broth microdilution method; format: functional, organism-based; conditions: ATCC33591, 24 h
Pseudomonas aeruginosa [19] = experiment: Synergistic antibacterial activity against Pseudomonas aeruginosa PAO1 assessed as inhibition of bacterial growth at highest concentration incubated for 24 hrs in the presence of ciprofloxacin by absorbance based microplate reader analysis relative to control; format: functional
Pseudomonas aeruginosa [20] = experiment: Inhibition of biofilm formation in Pseudomonas aeruginosa PAO1 assessed as effect on biofilm morphology at 102.4 ug/ml incubated for 24 hrs by scanning electron microscopic analysis; format: functional, organism-based; conditions: dose 102.4 µg/ml
Pseudomonas aeruginosa [21] = experiment: Synergistic antibacterial activity against Pseudomonas aeruginosa 27853 assessed as inhibition of bacterial growth at 1 to 128 ug/ml incubated for 24 hrs by absorbance based microplate reader analysis; format: functional, organism-based; conditions: dose 1-128 µg/ml

Structure (SMILES)	MIC (Escherichia coli)	inhibition [1]	MIC (Bacillus pumilus)	MIC (Bacillus subtilis)	Activity (Pseudomonas aeruginosa [2])	inhibition [3]	Activity (Pseudomonas aeruginosa [4])	MIC (Pseudomonas aeruginosa [5])	MIC (Pseudomonas aeruginosa [6])	MIC (Staphylococcus aureus [7])	hemolysis at 1 h, 512 ug/ml [8]	MIC (Staphylococcus aureus [9])	Activity (Pseudomonas aeruginosa [10])	Activity (Pseudomonas aeruginosa [11])	inhibition [12]	Activity (Pseudomonas aeruginosa [13])	Activity (Pseudomonas aeruginosa [14])	inhibition (Pseudomonas aeruginosa [15])	fold change (FC) (Pseudomonas aeruginosa [16])	further results
C=C1OC(=O)C(CNC(=O)c2ccc(Cl)cc2)=C1c1ccc(F)cc1	> 512 µg/mL	47.3%	> 512 µg/mL	> 512 µg/mL	Active	Active	inactive	> 512 µg/mL	> 512 µg/mL	> 512 µg/mL	> 2.5%	> 512 µg/mL	Dose-Dependent Effect	Active	8.6%	inactive	Active	Active		
C=C1C(c2ccc(F)cc2)=C(CNC(=O)c2ccc(C)cc2)C(=O)N1c1cccc(C)c1	> 512 µg/mL	57.1%	512 µg/mL (≈ 1200 µM)	> 512 µg/mL	Active	35.2%	inactive	> 512 µg/mL	512 µg/mL (≈ 1200 µM)	> 512 µg/mL	> 2.5%	> 512 µg/mL	Dose-Dependent Effect	Active	8.6%	inactive		Active	>=1.5	
C=C1C(c2ccc(F)cc2)=C(CNC(=O)c2ccc(C)cc2)C(=O)N1c1ccc(C)cc1	> 512 µg/mL	49.7%	512 µg/mL (≈ 1200 µM)	512 µg/mL (≈ 1200 µM)	Active	Active	inactive	> 512 µg/mL	512 µg/mL (≈ 1200 µM)	> 512 µg/mL	> 2.5%	> 512 µg/mL	Dose-Dependent Effect	Active	8.6%	inactive		inactive	>=1.5	
C=C1OC(=O)C(CNC(=O)CCCCCCCCCC)=C1c1ccc(F)cc1	> 512 µg/mL	Active	> 512 µg/mL	> 512 µg/mL		44.7%	inactive	> 512 µg/mL	> 512 µg/mL	> 512 µg/mL		> 512 µg/mL			Active	inactive		inactive		
C=C1OC(=O)C(CNC(=O)c2cccc(OC)c2)=C1c1ccc(F)cc1	> 512 µg/mL	Active	> 512 µg/mL	> 512 µg/mL	Active	Active	inactive	> 512 µg/mL	> 512 µg/mL	> 512 µg/mL		32 µg/mL (≈ 90.6 µM)	Dose-Dependent Effect	Active	8.6%	inactive	Active	Active		
C=C1OC(=O)C(CNC(=O)c2ccc(C)cc2)=C1c1ccc(OC)cc1	> 512 µg/mL	Active	> 512 µg/mL	> 512 µg/mL		Active	inactive	> 512 µg/mL	> 512 µg/mL	> 512 µg/mL		> 512 µg/mL			Active	inactive		inactive		
CC[C@H]1OC(=O)[C@H](C)[C@@H](O[C@H]2C[C@@](C)(OC)[C@@H](O)[C@H](C)O2)[C@H](C)[C@@H](O[C@@H]2O[C@H](C)C[C@H](N(C)C)[C@H]2O)[C@](C)(OC)C[C@@H](C)C(=O)[C@H](C)[C@@H](O)[C@]1(C)O [CLARITHROMYCIN]	128 µg/mL (≈ 171 µM)		0.25 µg/mL (≈ 0.334 µM)	0.25 µg/mL (≈ 0.334 µM)				128 µg/mL (≈ 171 µM)	256 µg/mL (≈ 342 µM)	0.25 µg/mL (≈ 0.334 µM)		16 µg/mL (≈ 21.4 µM)								inhibition at […] (Pseudomonas aeruginosa [17]): 32.7%
O=C1O/C(=C\c2cc(Br)c(O)c(Br)c2)C(c2ccc(O)c(Br)c2)=C1C(=O)c1ccccc1																				IC50 (Klebsiella pneumoniae): 7.5 µg/mL (≈ 12.1 µM); IC50 (Enterococcus faecalis): 3.6 µg/mL (≈ 5.8 µM); IC50 (Staphylococcus aureus [18]): 0.7 µg/mL (≈ 1.13 µM)
C=C1OC(=O)C(CNC(=O)c2ccc(OC)cc2)=C1c1ccc(F)cc1	> 512 µg/mL	Active	32 µg/mL (≈ 90.6 µM)	128 µg/mL (≈ 362 µM)	Active	44%	inactive	> 512 µg/mL	> 512 µg/mL	32 µg/mL (≈ 90.6 µM)		64 µg/mL (≈ 181 µM)	Dose-Dependent Effect	Active	8.6%	inactive	Active	Active		inhibition (INH) (Pseudomonas aeruginosa [19]): 90.53%
CC[C@H]1OC(=O)[C@H](C)[C@@H](O[C@H]2C[C@@](C)(OC)[C@@H](O)[C@H](C)O2)[C@H](C)[C@@H](O[C@@H]2O[C@H](C)C[C@H](N(C)C)[C@H]2O)[C@](C)(O)C[C@@H](C)CN(C)[C@H](C)[C@@H](O)[C@]1(C)O [AZITHROMYCIN]	128 µg/mL (≈ 171 µM)		0.25 µg/mL (≈ 0.334 µM)	0.25 µg/mL (≈ 0.334 µM)				16 µg/mL (≈ 21.4 µM)	256 µg/mL (≈ 342 µM)	0.25 µg/mL (≈ 0.334 µM)		256 µg/mL (≈ 342 µM)								inhibition (Pseudomonas aeruginosa [20]): inactive
C=C1C(c2ccc(F)cc2)=C(CNC(=O)c2ccc(C)cc2)C(=O)N1c1ccccc1C	> 512 µg/mL	45.9%	512 µg/mL (≈ 1200 µM)	> 512 µg/mL	Active	38.3%	inactive	> 512 µg/mL	512 µg/mL (≈ 1200 µM)	> 512 µg/mL	< 2.5%	> 512 µg/mL	Dose-Dependent Effect	Active	8.6%	inactive	Active	inactive	>=1.5	
C=C1OC(=O)C(CNC(=O)c2ccc(Br)cc2)=C1c1ccc(F)cc1	> 512 µg/mL	48.5%	> 512 µg/mL	16 µg/mL (≈ 39.8 µM)	Active	34.7%	inactive	> 512 µg/mL	> 512 µg/mL	> 512 µg/mL	> 2.5%	8 µg/mL (≈ 19.9 µM)	Dose-Dependent Effect	Active	8.6%	inactive	Active	inactive	>=1.5	Activity (Pseudomonas aeruginosa [21]): Active
